According to patent US20060009520A1, “Retinoid-based methods for altering macrophage cholesterol” (priority 2004, published 2006):

Experiments:
ABCA1 protein [1] = experiment: Western blot of ABCA1 protein in human monocyte-derived macrophages; format: cell-based; settings: human primary monocytes/macrophages, 10 μM, 24 h
Method: (§1) Protein extracts from macrophages were prepared by lysing the cells in modified radioimmunoprecipitation assay buffer (50 mM Tris, 150 mM NaCl, 1 mM EDTA. 1% Triton X-100) containing a protease inhibitor cocktail (Complete EDTA Free; Roche). Protein content in the extracts was determined by using the DC protein assay (Bio-Rad, Hercules, Calif.). Equal amounts of protein (40 to 50 μg) were separated by electrophoresis with 4 to 15% acrylamide gradient gels (Bio-Rad) and then transferred to nitrocellulose membrane (Trans-Blot Transfer Medium; Bio-Rad). Membranes were probed with anti-ABCA1 antibody (Novus Biologicals, Littleton, Colo.) and anti-β-actin antibody (Sigma) according to the manufacturer's recommendations. Immunoblots were developed by using a chemiluminescent detection system (Super Signal West Pico chemiluminescent substrate; Pierce, Rockford, Ill.).

[2] = system: ABCA1, ABCG1, SREBP-1c, apoE, LXRα, Cyp26 mRNA; experiment: Quantitative real-time PCR of LXR target genes and Cyp26 in human monocyte-derived macrophages; format: cell-based
Method: (§2) For quantification of mouse Cyp26 mRNA levels, each amplification mixture (25 μ) contained 62.5 ng of cDNA, 100 nM concentrations of reverse and forward primers, and 2.5 μl of 10× SYBR Green PCR master mix (Perkin-Elmer Life Sciences, Boston, Mass.). Quantitative expression values were extrapolated from standard curves for Cyp26 expression with 10-fold dilutions of cDNA (in triplicate). Each sample was normalized to β-actin that was deduced from TaqMan assays, triplicate results were averaged, and relative Cyp26 mRNA levels were determined. The primers mCyp26 F (5′-[…]-3′) and mCyp26 R (5′-[…]-3′) were used. RNA measurements from human monocyte-derived macrophages were performed as described previously (10, 44).

[3] = system: ABCA1, ABCG1, SREBP-1c, apoE, LXRα, Cyp26 mRNA; experiment: Quantitative real-time PCR of LXR target genes and Cyp26 in mouse peritoneal macrophages; format: cell-based; settings: 24 h
Method: Total RNA was isolated from mouse peritoneal macrophages or ˜50 mg of mouse liver tissue by using the RNeasy Mini kit (Qiagen, Valencia, Calif.) or RNA-Bee reagent (Tel-Test, Inc., Friendswood, Tex.), respectively, according to the manufacturer's protocol. Real-time quantitative PCR assays were performed by using the Mx4000 Quantitative PCR System (Stratagene, La Jolla, Calif.). Briefly, 5 μg of total RNA was treated with RNase-free DNase I (Ambion, Austin, Tex.), and first-strand cDNA was synthesized with oligo(dT)12-18 by using a Superscript II RNase H^− reverse transcriptase reagent kit (Invitrogen) according to the manufacturer's protocol. For quantification of mouse ABCA1, ABCG1, SREBP-1c, LXRα, ApoE, and fatty acid synthase (FAS) mRNA levels, each amplification mixture contained 62.5 ng of cDNA, appropriate concentrations of forward and reverse primers and of dual-labeled fluorogenic probe (Biosearch Technologies, Novato, Calif.), and 12.5 μl of TaqMan Universal PCR master mix (Applied Biosystems, Foster City, Calif.). PCR thermocycling parameters were 50° C. for 2 min, 95° C. for 10 min, and 45 cycles of 95° C. for 15 s and 60° C. for 1 min. All samples were analyzed for β-actin expression in the same run. Quantitative expression values were extrapolated from standard curves for the gene of interest with 10-fold dilutions of cDNA (in triplicate). Each sample was normalized to β-actin, triplicates were averaged, and relative mRNA levels were determined. The following mouse primers and probes were used: mouse ABCA1 (mABCA1) forward (F) (5′-[…]-3′), mABCA1 reverse (R) (5′-[…]-3′), and mABCA1 TaqMan probe (5′-FAM-[…]-BHQ-3′); mABCG1 F (5′-[…]-3′), mABCG1 R (5′-[…]-3′), and mABCG1 TaqMan probe (5′-FAM-[…]-BHQ-3′); mSREBP-1c F (5′-[…]-3′), mSREBP-1c R (5′-[…]-3′), and mSREBP-1c TaqMan probe (5′-FAM-[…]-BHQ-3′); mApoE F (5′-[…]-3′), mApoE R (5′-[…]-3′), and mApoE TaqMan probe (5′-FAM-[…]-BHQ-3′); mLXRα F (5′-[…]-3′), mLXRα R (5′-[…]-3′), and mLXRα TaqMan probe (5′-FAM-[…]-BHQ-3′); mFAS F (5′-[…]-3′), mFAS R (5′-[…]-3′), and mFAS TaqMan probe (5′-FAM-[…]-BHQ-3′); and mβ-actin F (5′-[…]-3′), mβ-actin R (5′-[…]-3′), and mβ-actin TaqMan probe (5′-JOE-[…]-BHQ-3′).
as §2

RARγ protein = experiment: Western blot of RARγ protein in macrophages; format: cell-based; settings: macrophages incubated with ATRA
Method: Nuclear protein extracts from tissues and macrophages were isolated according to the following method. Tissue samples and cells were first homogenized on ice and then lysed in lysis buffer (10 mM Tris [pH 7.5], 3 mM MgCl2, 10 mM NaCl, 0.5% NP-40) containing protease inhibitor cocktail. The nucleus was then pelleted by centrifugation for 10 min at 6,000× g, immediately resuspended in a nucleus suspension buffer (250 mM Tris [pH 8.0], 60 mM KCl, I mM dithiothrietol), and then rotated for 1 h. […] The intensities of the bands were quantified by using ImageQuant and normalized to (β-actin.

[4] = system: ABCA1-mediated cholesterol efflux from mouse peritoneal macrophages; experiment: Cholesterol efflux to apoA-I from cholesterol-loaded macrophages
ABCA1 protein [5] = experiment: Western blot of ABCA1 protein in mouse peritoneal macrophages; format: cell-based; settings: 24 h
Method: as §1

[6] = system: acute promyelocytic leukemia; settings: patients with acute promyelocytic leukemia; cited from earlier work
[7] = human primary monocytes/macrophages, ATRA 0.5 to 5 μM, 24 h
[8] = mouse primary macrophages, ATRA 0.1 to 5 μM

## CC1=C(/C=C/C(C)=C/C=C/C(C)=C/C(=O)O)C(C)(C)CCC1 [ATRA, all-trans-retinoic acid]
ABCA1 protein [1]
  ABCA1 protein: increased
[2]; human primary macrophages, even at the higher dose
  apoE mRNA induction: not induced
[2]; [7]
  ABCA1 mRNA induction: strong induction
  ABCG1 mRNA induction: strong induction
  LXRα mRNA induction: weaker but significant increases
  SREBP-1c mRNA induction: weaker but significant increases
[3]; mouse peritoneal macrophages, ATRA 0.1 to 5 μM
  ABCA1 mRNA: increase in the mRNA that was parallel to the dose response of protein and cholesterol efflux
[3]; mouse primary macrophages
  lowest dose giving ABCA1 mRNA response: 0.25 µM
[3]; [8]
  ABCG1 mRNA induction: weaker and somewhat inconsistent induction
  LXRα mRNA induction: no significant induction
  SREBP-1c mRNA induction: weaker and somewhat inconsistent induction
  apoE mRNA induction: no significant induction
RARγ protein
  induction of RARγ protein: < 2 fold
[4]
  ABCA1-dependent cholesterol efflux to apoA-1, dose response: increased ABCA1-dependent cholesterol efflux to apoA-1 in a dose-dependent fashion
[4]; 1 and 5 μM ATRA
  increase in cholesterol efflux to apoA-I, ATRA compared with TO-901317: comparable to that occurring in macrophages treated with the LXR activator TO-901317
[4]; maximum dose of 10 μM
  increase of cholesterol efflux to apoA-1: ~2 fold
ABCA1 protein [5]
  ABCA1 protein levels: dose dependently increased
[6]
  patients in whom remission is induced: ca. 80%
